Measurements as given in ChEMBL document CHEMBL5303304, “EUbOPEN Chemogenomics Library - IncuCyte” (2023).

Assays:
Type in all cases: toxicity, cell-based
HEK-293T = assay: Incucyte cell viability with HEK293T; conditions: human, 10 µM, compound concentration 10 uM
Fibroblast = assay: Incucyte cell viability with human fibroblast; conditions: 10 µM, compound concentration 10 uM
U2OS = assay: Incucyte cell viability with U2OS; conditions: human, 10 µM, compound concentration 10 uM
Further: unitless GR value; below 1 slowed growth and below 0 cell loss.

| SMILES | Growth Rate (HEK-293T; 0 h, replicate number 1) | Growth Rate (HEK-293T; 6 h, replicate number 1) | Growth Rate (HEK-293T; 12 h, replicate number 1) | Growth Rate (HEK-293T; 18 h, replicate number 1) | Growth Rate (HEK-293T; 24 h, replicate number 1) | Growth Rate (Fibroblast; 6 h, replicate number 2) | Growth Rate (Fibroblast; 12 h, replicate number 1) | Growth Rate (Fibroblast; 12 h, replicate number 2) | Growth Rate (Fibroblast; 18 h, replicate number 1) | Growth Rate (Fibroblast; 18 h, replicate number 2) | Growth Rate (Fibroblast; 24 h, replicate number 1) | Growth Rate (U2OS; 0 h, replicate number 1) | Growth Rate (U2OS; 12 h, replicate number 1) | Growth Rate (U2OS; 12 h, replicate number 2) | Growth Rate (U2OS; 18 h, replicate number 2) | Growth Rate (U2OS; 24 h, replicate number 2) | Growth Rate (HEK-293T; 0 h, replicate number 2) | Growth Rate (Fibroblast; 0 h, replicate number 1) | Growth Rate (Fibroblast; 24 h, replicate number 2) | Growth Rate (U2OS; 0 h, replicate number 2) | other results |
| --- | --- | --- | --- | --- | --- | --- | --- | --- | --- | --- | --- | --- | --- | --- | --- | --- | --- | --- | --- | --- | --- |
| Nc1ncnc2c1c(I)cn2[C@@H]1O[C@H](CO)[C@@H](O)[C@H]1O [IODOTUBERCIDIN] | -0.62 | -0.1 | -0.22 | -0.21 | -0.1 | 0.95 | 0.39 | 0.25 | 0.57 | 0.43 | 0.53 | -0.27 | 0.15 | -0.14 | -0.04 | -0.18 | – | – | – | – | Growth Rate (HEK-293T; 6 h, replicate number 2): -0.01; Growth Rate (HEK-293T; 12 h, replicate number 2): -0.29; Growth Rate (HEK-293T; 18 h, replicate number 2): -0.24; Growth Rate (HEK-293T; 24 h, replicate number 2): -0.16; Growth Rate (Fibroblast; 0 h, replicate number 2): 0.24; Growth Rate (Fibroblast; 6 h, replicate number 1): 0.18; Growth Rate (U2OS; 6 h, replicate number 1): -0.39; Growth Rate (U2OS; 6 h, replicate number 2): 0.34; Growth Rate (U2OS; 18 h, replicate number 1): -0.13; Growth Rate (U2OS; 24 h, replicate number 1): -0.26 |
| CN[C@@H](C)C/C=C/c1cncc(OC(C)C)c1 [ISPRONICLINE] | 0.9 | 0.31 | 0.02 | 0.32 | 0.28 | 0.53 | -0.29 | 0.98 | 0.22 | 0.72 | 0.97 | -0.66 | 0.82 | – | – | – | 0.86 | -0.27 | 0.87 | 0.2 | Growth Rate (HEK-293T; 24 h, replicate number 2): 0.96; Growth Rate (Fibroblast; 0 h, replicate number 2): -0.46; Growth Rate (U2OS; 6 h, replicate number 1): 0.65; Growth Rate (U2OS; 18 h, replicate number 1): 0.83; Growth Rate (U2OS; 24 h, replicate number 1): 0.83 |
| COC(=O)C1=C(C)NC(C)=C(C(=O)OC(C)C)C1c1cccc2nonc12 (stereo not drawn) [ISRADIPINE] | 0.8 | – | – | – | – | – | -1 | – | -0.41 | – | 0.29 | 0.46 | 1 | 0.87 | 0.89 | 0.9 | 0.32 | – | – | 0.25 | Growth Rate (Fibroblast; 6 h, replicate number 1): -0.03; Growth Rate (U2OS; 6 h, replicate number 2): 0.83 |
| CC(C)(C)c1cc(C(C)(C)C)c(NC(=O)c2c[nH]c3ccccc3c2=O)cc1O [IVACAFTOR] | – | 0.19 | 0.71 | 0.65 | 0.92 | 0.55 | – | – | 0.28 | 0.65 | – | – | – | 0.7 | 0.92 | 0.89 | 0.3 | – | 0.91 | 0.5 | Growth Rate (HEK-293T; 6 h, replicate number 2): 0.98; Growth Rate (HEK-293T; 12 h, replicate number 2): 0.69; Growth Rate (HEK-293T; 18 h, replicate number 2): 0.75; Growth Rate (HEK-293T; 24 h, replicate number 2): 0.72; Growth Rate (Fibroblast; 0 h, replicate number 2): -0.84; Growth Rate (U2OS; 24 h, replicate number 1): 0.98 |
| COCCc1ccc(-c2c(C)nc3c(N4CCOCC4)ccnn23)cn1 [JNJ-42396302] | – | – | – | 0.91 | 0.86 | 0.78 | 0.86 | 0.81 | 0.88 | 0.84 | 0.86 | -0.6 | 0.98 | 0.93 | 0.99 | – | 0.44 | 0.07 | 0.91 | 0.07 | Growth Rate (U2OS; 6 h, replicate number 2): 0.56 |
| COc1nc2ccc([C@@](O)(c3ccccc3)C3CCN(C(C)=O)CC3)cc2c(Cl)c1Cc1ccc(-n2cccn2)cc1 [JNJ-54119936] | -0.96 | – | 0.65 | 0.37 | 0.25 | – | – | – | – | 0.98 | – | -1 | 0.93 | 0.72 | 0.7 | 0.64 | -1 | -1 | – | 0.93 | Growth Rate (U2OS; 6 h, replicate number 2): 0.45; Growth Rate (U2OS; 18 h, replicate number 1): 0.84; Growth Rate (U2OS; 24 h, replicate number 1): 0.94 |
| CC(=O)Nc1ncc(CN2CCC[C@H](Cc3cc(C)nc(C)c3)C2)s1 [JNJ-65355394] | – | 0.82 | 0.83 | – | 0.91 | 0.74 | 0.9 | 0.75 | – | 0.94 | – | -1 | – | 0.62 | 0.92 | 0.78 | -0.2 | -1 | – | – | Growth Rate (U2OS; 6 h, replicate number 1): -0.86; Growth Rate (U2OS; 18 h, replicate number 1): 0.96 |
| CC(=O)Nc1nc(CN2CCC[C@H](Cc3cc(C)nc(C)c3)C2)cs1 [JNJ-73924149] | – | 0.52 | 0.71 | 0.81 | 0.82 | 0.73 | 0.89 | 0.74 | 0.87 | 0.72 | – | – | – | 0.87 | – | 0.91 | – | – | 0.79 | – | Growth Rate (HEK-293T; 6 h, replicate number 2): 0.53; Growth Rate (HEK-293T; 18 h, replicate number 2): 0.95; Growth Rate (HEK-293T; 24 h, replicate number 2): 0.95; Growth Rate (Fibroblast; 6 h, replicate number 1): 0.58; Growth Rate (U2OS; 18 h, replicate number 1): 0.89 |
| NCCCNCCCCNCCC(=O)NCCCCCNC(=O)[C@H](CC(N)=O)NC(=O)Cc1ccc(O)cc1O [JORO SPIDER TOXIN 3] | -0.96 | – | – | – | – | – | – | – | 0.85 | – | 0.49 | – | – | – | – | – | -1 | 0.16 | – | -0.97 | Growth Rate (Fibroblast; 0 h, replicate number 2): -1 |
| N#CN1CC[C@@H](C(=O)Nc2nc3c(s2)CN(C(=O)CN=[N+]=[N-])CC3)C1 [JYQ88] | 0.97 | 0.69 | 0.77 | 1 | 0.96 | 0.78 | 0.78 | 0.49 | – | 0.75 | 1 | -1 | 0.95 | – | – | – | – | -1 | 0.77 | – | Growth Rate (HEK-293T; 6 h, replicate number 2): 0.71; Growth Rate (HEK-293T; 12 h, replicate number 2): 0.7; Growth Rate (HEK-293T; 18 h, replicate number 2): 0.77; Growth Rate (HEK-293T; 24 h, replicate number 2): 0.85 |
| C=C(C)[C@H]1CN[C@H](C(=O)O)[C@H]1CC(=O)O [KAINIC ACID] | – | 0.6 | 0.52 | 0.62 | 0.8 | 0.16 | – | 0.83 | 0.63 | 0.79 | 0.76 | – | – | – | 0.9 | – | – | -0.12 | 0.8 | -0.65 | Growth Rate (HEK-293T; 18 h, replicate number 2): 0.99; Growth Rate (Fibroblast; 0 h, replicate number 2): 0.92; Growth Rate (Fibroblast; 6 h, replicate number 1): 0.61; Growth Rate (U2OS; 6 h, replicate number 1): 0.42; Growth Rate (U2OS; 24 h, replicate number 1): 0.98 |
